Experimental findings from patent publication US20230117034A1, “PYRAZOLOTRIAZINES” (Bayer Aktiengesellschaft, priority 2019, published 2023) are described below.

One assay concerns the target CDK12/CycK (Homo sapiens, UniProt Q9NYV4). Put plainly: CDK12/CycK high ATP kinase assay (TR-FRET, 2 mM ATP). In kind it is biochemical. As to conditions: 2 mM ATP (high ATP); median; read-out: CDK12/CyclinK, 2 mM ATP (high ATP), IC50-[mol/l] (median). The method in brief: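 His-tagged human CDK12/CycK (~0.75 nM) pre-incubated 15 min with compound, then 60 min at 22 °C with 2 mM ATP and 1 µM biotinylated peptide (HEPES pH 7.5, 20 mM MgCl2). EDTA stop; phospho-Ser62 antibody/Eu anti-rabbit and streptavidin-XL665 TR-FRET, 665/620 nm ratio normalised to give IC50.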
(In TR-FRET formats the signal depends on donor and acceptor labels being close together.)

The target of assay [1] is T1, CYCLIN K (nuclear staining in CAL-120 cells) (Homo sapiens, UniProt O75909).
T1 construct: endogenous in cells; host or cells: CAL-120 human breast cancer cells (DSMZ ACC 459)
T1 sequence (O75909 whole entry): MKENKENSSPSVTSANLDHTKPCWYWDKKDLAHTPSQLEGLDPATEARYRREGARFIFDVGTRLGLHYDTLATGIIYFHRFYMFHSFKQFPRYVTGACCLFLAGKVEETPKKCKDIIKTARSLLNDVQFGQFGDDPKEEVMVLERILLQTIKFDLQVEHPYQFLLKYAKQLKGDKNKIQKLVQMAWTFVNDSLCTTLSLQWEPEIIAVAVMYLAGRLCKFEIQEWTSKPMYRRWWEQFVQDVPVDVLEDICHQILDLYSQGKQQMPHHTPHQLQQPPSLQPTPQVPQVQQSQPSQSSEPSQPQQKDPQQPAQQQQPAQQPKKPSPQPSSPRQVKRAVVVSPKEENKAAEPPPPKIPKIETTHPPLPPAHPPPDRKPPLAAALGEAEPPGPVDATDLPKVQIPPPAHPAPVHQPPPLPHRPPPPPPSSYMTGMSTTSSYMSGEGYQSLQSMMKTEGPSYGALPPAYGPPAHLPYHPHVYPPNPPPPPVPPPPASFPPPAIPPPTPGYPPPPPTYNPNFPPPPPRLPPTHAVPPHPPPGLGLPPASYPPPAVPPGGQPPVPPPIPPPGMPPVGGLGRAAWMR
T1 sequence (Q9NYV4 whole entry partner): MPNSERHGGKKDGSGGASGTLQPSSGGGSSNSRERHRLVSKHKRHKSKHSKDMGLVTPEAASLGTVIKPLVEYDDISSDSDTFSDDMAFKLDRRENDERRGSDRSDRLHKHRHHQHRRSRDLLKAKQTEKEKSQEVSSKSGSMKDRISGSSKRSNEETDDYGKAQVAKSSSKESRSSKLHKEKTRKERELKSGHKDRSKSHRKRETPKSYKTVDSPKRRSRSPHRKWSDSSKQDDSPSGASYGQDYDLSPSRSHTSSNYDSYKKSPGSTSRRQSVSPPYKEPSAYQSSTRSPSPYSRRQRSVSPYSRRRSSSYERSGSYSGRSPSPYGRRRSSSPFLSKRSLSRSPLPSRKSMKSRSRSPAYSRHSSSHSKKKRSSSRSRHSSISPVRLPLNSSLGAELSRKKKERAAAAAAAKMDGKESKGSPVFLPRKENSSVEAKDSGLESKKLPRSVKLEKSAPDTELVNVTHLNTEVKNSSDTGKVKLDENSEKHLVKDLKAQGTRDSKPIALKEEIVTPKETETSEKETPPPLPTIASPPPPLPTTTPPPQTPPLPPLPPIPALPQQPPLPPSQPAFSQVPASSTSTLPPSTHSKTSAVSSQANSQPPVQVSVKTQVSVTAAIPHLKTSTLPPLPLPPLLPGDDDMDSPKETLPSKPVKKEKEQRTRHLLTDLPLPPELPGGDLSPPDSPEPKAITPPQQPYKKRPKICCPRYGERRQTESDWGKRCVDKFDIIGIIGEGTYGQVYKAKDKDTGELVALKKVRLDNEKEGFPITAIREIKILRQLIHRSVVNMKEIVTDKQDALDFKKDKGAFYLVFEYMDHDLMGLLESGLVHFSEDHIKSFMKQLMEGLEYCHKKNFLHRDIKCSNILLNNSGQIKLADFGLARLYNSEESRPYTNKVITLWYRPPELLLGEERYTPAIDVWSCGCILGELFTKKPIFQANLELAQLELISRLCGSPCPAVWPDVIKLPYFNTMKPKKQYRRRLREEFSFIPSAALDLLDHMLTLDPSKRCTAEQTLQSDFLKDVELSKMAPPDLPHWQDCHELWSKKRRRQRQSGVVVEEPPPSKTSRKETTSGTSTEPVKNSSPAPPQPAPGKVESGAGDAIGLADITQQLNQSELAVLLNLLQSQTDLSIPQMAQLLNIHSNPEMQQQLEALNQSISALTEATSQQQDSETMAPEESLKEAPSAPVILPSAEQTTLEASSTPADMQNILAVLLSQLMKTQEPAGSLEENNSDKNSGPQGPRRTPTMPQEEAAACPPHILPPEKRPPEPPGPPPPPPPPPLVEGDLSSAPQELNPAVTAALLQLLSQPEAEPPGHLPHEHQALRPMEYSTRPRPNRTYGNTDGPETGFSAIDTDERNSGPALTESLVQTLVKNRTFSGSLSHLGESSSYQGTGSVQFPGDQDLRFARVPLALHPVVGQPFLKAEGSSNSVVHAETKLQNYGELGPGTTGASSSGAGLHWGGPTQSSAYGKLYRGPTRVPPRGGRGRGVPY
Put plainly: CYCLIN K nuclear protein level: immunofluorescence high content analysis (CAL-120). In kind it is cell-based. As to conditions: 24 h, 50% reduction of nuclear CCNK staining intensity, median, read-out: CYCLIN K degradation IF, DC50-[mol/l] (median). The method in brief:
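CAL-120 breast cancer cells treated in dose-response for 24 h at 37 °C, PFA-fixed and immunostained for cyclin K with Hoechst counterstain. Confocal imaging quantified nuclear intensity; DC50 is the concentration giving 50% reduction of nuclear CCNK staining, normalized to DMSO and control.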

SMILES strings stand for the structures.

Sequence of CDK12/CycK (Q9NYV4 with tags, fused parts or gaps): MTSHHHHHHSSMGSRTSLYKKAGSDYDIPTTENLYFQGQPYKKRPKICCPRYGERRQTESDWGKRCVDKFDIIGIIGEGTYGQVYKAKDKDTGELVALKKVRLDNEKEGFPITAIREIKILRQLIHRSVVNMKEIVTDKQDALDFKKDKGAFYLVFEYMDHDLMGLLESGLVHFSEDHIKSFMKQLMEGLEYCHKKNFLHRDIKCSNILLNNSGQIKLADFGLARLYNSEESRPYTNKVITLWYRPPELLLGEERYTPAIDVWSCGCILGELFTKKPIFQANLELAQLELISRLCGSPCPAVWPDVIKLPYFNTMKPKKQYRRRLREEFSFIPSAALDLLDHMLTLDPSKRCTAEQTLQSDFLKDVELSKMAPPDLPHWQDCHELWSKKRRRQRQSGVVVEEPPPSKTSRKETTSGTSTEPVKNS
Sequence of CDK12/CycK (O75909 1-300 partner limits assumed): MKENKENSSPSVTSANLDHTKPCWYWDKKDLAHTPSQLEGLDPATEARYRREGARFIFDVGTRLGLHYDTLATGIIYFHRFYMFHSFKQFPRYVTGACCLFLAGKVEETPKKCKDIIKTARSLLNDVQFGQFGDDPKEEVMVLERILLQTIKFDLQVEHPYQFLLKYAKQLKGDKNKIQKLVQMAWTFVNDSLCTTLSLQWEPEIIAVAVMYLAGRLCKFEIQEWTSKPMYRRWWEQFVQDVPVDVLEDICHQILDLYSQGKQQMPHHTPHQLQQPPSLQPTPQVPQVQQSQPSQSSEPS

As to `Fc1ccc2[nH]c(CNc3nc(N4CCOCC4)nc4c(CC(F)(F)F)cnn34)nc2c1F` [Example 268, N-[(4,5-difluoro-1H-benzimidazol-2-yl)methyl]-2-(morpholin-4-yl)-8-(2,2,2-trifluoroethyl)pyrazolo[1,5-a][1,3,5]triazin-4-amine], the IC50 at CDK12/CycK came out at 2130 nM. Further, the DC50 in assay [1] amounted to 0.756 nM. The like results for `FC(F)(F)c1cnn2c(NCc3nc4cc(Cl)ccc4[nH]3)nc(N3CCOCC3)nc12` [Example 275, N-[(5-chloro-1H-benzimidazol-2-yl)methyl]-2-(morpholin-4-yl)-8-(trifluoromethyl)pyrazolo[1,5-a][1,3,5]triazin-4-amine] were, in that order, 97.3 nM and 0.303 nM. The like results for `N[C@H]1CCN(c2nc(NCc3nc4ccccc4[nH]3)n3ncc(Br)c3n2)C1` [Example 245, 2-[(3S)-3-aminopyrrolidin-1-yl]-N-[(1H-benzimidazol-2-yl)methyl]-8-bromopyrazolo[1,5-a][1,3,5]triazin-4-amine] were, in that order, greater than 15800 nM and 0.627 nM. Take `Fc1cccc2[nH]c(CNc3nc(N4CCOCC4)nc4c(CC(F)(F)F)cnn34)nc12` [Example 303, N-[(4-fluoro-1H-benzimidazol-2-yl)methyl]-2-(morpholin-4-yl)-8-(2,2,2-trifluoroethyl)pyrazolo[1,5-a][1,3,5]triazin-4-amine]: the IC50 at CDK12/CycK amounted to 1710 nM. In addition, in assay [1], the DC50 worked out at 0.546 nM. For `CN1CCN(c2nc(NCc3nc4cc(F)c(Cl)cc4[nH]3)n3ncc(C4CC4)c3n2)CC1` [Example 309, N-[(6-chloro-5-fluoro-1H-benzimidazol-2-yl)methyl]-8-cyclopropyl-2-(4-methylpiperazin-1-yl)pyrazolo[1,5-a][1,3,5]triazin-4-amine], on CDK12/CycK, the IC50 is greater than 20000 nM. Besides, the DC50 in assay [1] is 0.914 nM. The like results for `NC1CCN(c2nc(NCc3nc4ccccc4[nH]3)n3ncc(Br)c3n2)CC1` [Example 256, 2-(4-aminopiperidin-1-yl)-N-[(1H-benzimidazol-2-yl)methyl]-8-bromopyrazolo[1,5-a][1,3,5]triazin-4-amine] were, in that order, greater than 20000 nM and 0.326 nM.

Take `NC1(C(F)(F)F)CCN(c2nc(NCc3nc4ccccc4[nH]3)n3ncc(Br)c3n2)C1` (stereo not shown) [Example 266, 2-[3-amino-3-(trifluoromethyl)pyrrolidin-1-yl]-N-(1H-benzimidazol-2-ylmethyl)-8-bromo-pyrazolo[1,5-a][1,3,5]triazin-4-amine]: at CDK12/CycK, the IC50 was 3480 nM.

Turning to `Brc1cnn2c(NCc3nc4ccccc4[nH]3)nc(N3C[C@@H]4CN[C@@H]4C3)nc12.O=C(O)C(F)(F)F` [Example 267, trifluoroacetic acid-N-[(1H-benzimidazol-2-yl)methyl]-8-bromo-2-[(1S,5S)-3,6-diazabicyclo[3.2.0]heptan-3-yl]pyrazolo[1,5-a][1,3,5]triazin-4-amine (1/1)], at CDK12/CycK, the IC50 is greater than 20000 nM. `Brc1cnn2c(NCc3nc4ccccc4[nH]3)nc(N3C[C@H]4C[C@@H]3CN4)nc12` [Example 269, N-[(1H-benzimidazol-2-yl)methyl]-8-bromo-2-[(1R,4R)-2,5-diazabicyclo[2.2.1]heptan-2-yl]pyrazolo[1,5-a][1,3,5]triazin-4-amine]: the IC50 at CDK12/CycK is 8610 nM. The DC50 in assay [1] was found to be 0.324 nM. As to `CN1CCN(c2nc(NCc3nc4cc(Cl)ccc4[nH]3)n3ncc(C(F)(F)F)c3n2)CC1` [Example 298, N-[(5-chloro-1H-benzimidazol-2-yl)methyl]-2-(4-methylpiperazin-1-yl)-8-(trifluoromethyl)pyrazolo[1,5-a][1,3,5]triazin-4-amine], at CDK12/CycK, the IC50 came to 8310 nM. In addition, the DC50 in assay [1] turned out to be 1.44 nM. In the case of `Fc1ccc2[nH]c(CNc3nc(N4CCOCC4)nc4c(C5CC5(F)F)cnn34)nc2c1` (racemic) [Example 286, 8-[(1RS)-2,2-difluorocyclopropyl]-N-[(5-fluoro-1H-benzimidazol-2-yl)methyl]-2-(morpholin-4-yl)pyrazolo[1,5-a][1,3,5]triazin-4-amine], the IC50 at CDK12/CycK came to 11300 nM. Moreover, in assay [1], the DC50 is 1.89 nM.

`Brc1cnn2c(NCc3nc4ccccc4[nH]3)nc(N3C[C@H]4CN[C@H]4C3)nc12.O=C(O)C(F)(F)F` [Example 255, trifluoroacetic acid-N-[(1H-benzimidazol-2-yl)methyl]-8-bromo-2-[(1R,5R)-3,6-diazabicyclo[3.2.0]heptan-3-yl]pyrazolo[1,5-a][1,3,5]triazin-4-amine (1/1)]: the IC50 on CDK12/CycK is greater than 20000 nM. In the case of `c1ccc2[nH]c(CNc3nc(N4C[C@@H]5C[C@H]4CO5)nc4c(C5CC5)cnn34)nc2c1` [Example 254, N-[(1H-benzimidazol-2-yl)methyl]-8-cyclopropyl-2-[(1S,4S)-2-oxa-5-azabicyclo[2.2.1]heptan-5-yl]pyrazolo[1,5-a][1,3,5]triazin-4-amine], the IC50 at CDK12/CycK was greater than 20000 nM. In assay [1], the DC50 amounted to 4.17 nM. The like results for `FC1(F)CC1c1cnn2c(NCc3nc4ccccc4[nH]3)nc(N3CCOCC3)nc12` (stereo not shown) [Example 279, N-[(1H-benzimidazol-2-yl)methyl]-8-(2,2-difluorocyclopropyl)-2-(morpholin-4-yl)pyrazolo[1,5-a][1,3,5]triazin-4-amine] were, in that order, 14000 nM and 3.78 nM. Regarding `Brc1cnn2c(NCc3nc4ccccc4[nH]3)nc(N3C[C@H]4CC[C@@H]3CN4)nc12` (single isomer, unassigned) [Example 316, N-[(1H-benzimidazol-2-yl)methyl]-8-bromo-2-{[1R or S-(1R*4R*)]-2,5-diazabicyclo[2.2.2]octan-2-yl}pyrazolo[1,5-a][1,3,5]triazin-4-amine], the IC50 on CDK12/CycK amounted to 2920 nM. As for `Fc1ccc2[nH]c(CNc3nc(N4CCOCC4)nc4c(C5CCCC5)cnn34)nc2c1F` [Example 262, 8-cyclopentyl-N-[(4,5-difluoro-1H-benzimidazol-2-yl)methyl]-2-(morpholin-4-yl)pyrazolo[1,5-a][1,3,5]triazin-4-amine], on CDK12/CycK, the IC50 was greater than 5710 nM. In addition, the DC50 in assay [1] was determined as 1.94 nM. Turning to `NC12CC1CN(c1nc(NCc3nc4ccccc4[nH]3)n3ncc(Br)c3n1)C2` (stereo not shown) [Example 258, 2-(1-amino-3-azabicyclo[3.1.0]hexan-3-yl)-N-(1H-benzimidazol-2-ylmethyl)-8-bromo-pyrazolo[1,5-a][1,3,5]triazin-4-amine], on CDK12/CycK, the IC50 turned out to be 4690 nM. With `CCNC1CCN(c2nc(NCc3nc4ccccc4[nH]3)n3ncc(Br)c3n2)CC1` [Example 300], the IC50 at CDK12/CycK was greater than 20000 nM. For the same compound, in assay [1], the DC50 was 1.03 nM. Regarding `Fc1ccc2[nH]c(CNc3nc(N4CCOCC4)nc4c(C5CCOCC5)cnn34)nc2c1F` [Example 276, N-[(4,5-difluoro-1H-benzimidazol-2-yl)methyl]-2-(morpholin-4-yl)-8-(oxan-4-yl)pyrazolo[1,5-a][1,3,5]triazin-4-amine], the IC50 on CDK12/CycK was greater than 20000 nM. Same read-out and setting: with `Brc1cnn2c(NCc3nc4cccnc4[nH]3)nc(N3CCNCC3)nc12.O=CO` [Example 19, 8-bromo-N-[(3H-imidazo[4,5-b]pyridin-2-yl)methyl]-2-(piperazin-1-yl)pyrazolo[1,5-a][1,3,5]triazin-4-amine formic acid salt] the figure was 11500 nM; with `c1ccc2[nH]c(CNc3nc(N4C[C@@H]5CCCN[C@@H]5C4)nc4c(C5CC5)cnn34)nc2c1` [Example 249, N-[(1H-benzimidazol-2-yl)methyl]-8-cyclopropyl-2-[(4aS,7aS)-octahydro-6H-pyrrolo[3,4-b]pyridin-6-yl]pyrazolo[1,5-a][1,3,5]triazin-4-amine], greater than 17000 nM. Take `CN1CCN(c2nc(NCc3nc4ccccc4[nH]3)n3ncc(Br)c3n2)C(CO)C1` (single isomer, unassigned) [Example 280, [(2R or S)-1-(4-{[(1H-benzimidazol-2-yl)methyl]amino}-8-bromopyrazolo[1,5-a][1,3,5]triazin-2-yl)-4-methylpiperazin-2-yl]methanol]: on CDK12/CycK, the IC50 was 14500 nM. On the same count and under the same terms, with `CC1(O)CCN(c2nc(NCc3nc4ccccc4[nH]3)n3ncc(Br)c3n2)C1` (single isomer, unassigned) [Example 282, (3R or S)-1-(4-{[(1H-benzimidazol-2-yl)methyl]amino}-8-bromopyrazolo[1,5-a][1,3,5]triazin-2-yl)-3-methylpyrrolidin-3-ol] the figure was greater than 8950 nM; with `Brc1cnn2c(NCc3nc4ccccc4[nH]3)nc(NCC3CC3)nc12` [Example 284, N^4-[(1H-benzimidazol-2-yl)methyl]-8-bromo-N^2-(cyclopropylmethyl)pyrazolo[1,5-a][1,3,5]triazine-2,4-diamine], 5460 nM.

Turning to `CN(CC1CC1)c1nc(NCc2nc3ccccc3[nH]2)n2ncc(Br)c2n1` [Example 287, N^4-[(1H-benzimidazol-2-yl)methyl]-8-bromo-N^2-(cyclopropylmethyl)-N^2-methylpyrazolo[1,5-a][1,3,5]triazine-2,4-diamine], at CDK12/CycK, the IC50 is 10700 nM.

For `COc1cccc2[nH]c(CNc3nc(N4CCOCC4)nc4c(CC(F)(F)F)cnn34)nc12` [Example 277, N-[(4-methoxy-1H-benzimidazol-2-yl)methyl]-2-(morpholin-4-yl)-8-(2,2,2-trifluoroethyl)pyrazolo[1,5-a][1,3,5]triazin-4-amine], at CDK12/CycK, the IC50 worked out at 4790 nM.

For the compound `N[C@H]1CN(c2nc(NCc3nc4ccccc4[nH]3)n3ncc(Br)c3n2)CC12CC2` [Example 259, 2-[(7R)-7-amino-5-azaspiro[2.4]heptan-5-yl]-N-[(1H-benzimidazol-2-yl)methyl]-8-bromopyrazolo[1,5-a][1,3,5]triazin-4-amine], on CDK12/CycK, the IC50 is 2590 nM.
